One data set relates to CD45+ cells. Description: Cell viability in apheresis product by flow cytometry (CD45-PerCP and 7-AAD; % CD45+ cells). It counts as cell-based. To be noted: FIG. 7 lower panel; 14 mM Citrate, overnight; A23187 at 4 micromolar in DMEM media. How it is done:
Cell viability may be determined by flow cytometry using CD45-PerCP and 7-AAD.
FIG. 7: An apheresis product is collected into 14 mM Citrate (ACD-A). […] The calcium ionophore A23187 is used at 4 micromolar in apheresis material resuspended in DMEM media. […] Determination of singlets and aggregates may be done by flow cytometry using side and forward scatter of the CD45+ cell population. Cell viability is determined as the % CD45+ cells.

The subject of the next data set is neutrophils. The settings on record: cited from earlier work.
The subject of another data set is cultured cells. To be noted: at micromolar concentrations; cited from earlier work.
A further data set concerns CD45+ cell population. Description: Singlets and aggregates in apheresis product by flow cytometry (side and forward scatter). It counts as cell-based. To be noted: FIG. 7 top panel; 14 mM Citrate (ACD-A), overnight, low/medium/high concentrations, compared to control with no inhibitors.
A further data set concerns cell aggregates. Description: Cell aggregates in apheresis product after 24 h, glass slide under microscope. It counts as cell-based. The settings on record: FIG. 10, 14 mM Citrate, GSK484 10 micromolar, DTPA 10 micromolar, Tirofiban 2.5 micrograms/ml.
The test system of the next data set is granulocytes. To be noted: incubation; cited from earlier work.

Method for cell aggregates: FIG. 9: An apheresis product is collected in 14 mM Citrate and divided into two different tubes—one with no further addition and a second tube with additional citrate for a final concentration of 28 mM (2X ACD-A). The tubes are left overnight at room temperature under rotation. After 24 h, aliquots of the tubes are spotted on a glass slide and are analyzed under the microscope for the presence of cell aggregates.
FIG. 10: An apheresis product is collected in 14 mM Citrate (ACD-A) and aliquots are taken and incubated with the different inhibitors, or in combination, in different tubes for 24 h. The tubes are left under rotation at room temperature. After 24 h, aliquots of the different tubes are spotted on a glass slide and are analyzed under a microscope for the presence of cell aggregates.

Turning to `CNc1ccc2oc(C[C@H]3O[C@@]4(CC[C@H]3C)O[C@H]([C@H](C)C(=O)c3ccc[nH]3)[C@H](C)C[C@H]4C)nc2c1C(=O)O` [A23187], the “viability (% CD45+ cells)” value in the data set with CD45+ cells was “affect viability”.
Regarding `CCCCC(CC)CNC(=N)NC(=N)NCCCCCCNC(=N)NC(=N)NCC(CC)CCCC` (stereo not drawn) [Alexidine], in the data set with neutrophils (after 2 h of incubation), the “NETosis after 2 h of incubation” value is listed as “induces NETosis”. In the data set with neutrophils (in neutrophils), the “NET formation induced by ionomycin” value is recorded as “inhibits NET formation”. Also, the “basal level of netosis” value with neutrophils (without an increase of cytosolic calcium) was “inhibits the basal level of netosis”.
On to `O=C(O)CN(CCN(CC(=O)O)CC(=O)O)CCN(CC(=O)O)CC(=O)O` [DTPA, diethylenetriaminepentacetic acid], for which the “apoptosis and cell death” value in the data set on cultured cells is “induce apoptosis and cell death”. For the same compound, the “aggregation (singlets %)” value with CD45+ cell population was “very effective at all concentrations tested”.
Turning to `COc1cc(C(=O)N2CC[C@@H](O)[C@@H](N)C2)cc2nc(-c3cc4ccccc4n3CC3CC3)n(C)c12` [GSK484], the “aggregation (singlets %)” value with CD45+ cell population is “inhibit aggregation in a dose dependent manner”.
For the compound `S=C=Nc1cccc(NC(=S)NCCCCNC(=S)Nc2cccc(N=C=S)c2)c1` [MRS2578], the “aggregation (singlets %)” value with CD45+ cell population is on record as “inhibit aggregation in a dose dependent manner”.
Consider `c1ccc(CN(CCN(Cc2ccccn2)Cc2ccccn2)Cc2ccccn2)nc1` [TPEN, N,N,N′, N′-tetrakis(2-pyridylmethyl)ethylenediamine], for which the “apoptosis and cell death” value in the data set with cultured cells is “induce apoptosis and cell death”.
As for `CCCCS(=O)(=O)N[C@@H](Cc1ccc(OCCCCC2CCNCC2)cc1)C(=O)O` [Tirofiban, tirofiban], in the data set with cell aggregates, the “formation of cell aggregates” value is on record as “prevents the formation of cell aggregates”.
With `C[C@@H](N)[C@H]1CC[C@H](C(=O)Nc2ccncc2)CC1` [Y-27632], in the data set on neutrophils (pre-treatment), the “NET formation induced by PMA and other challenges” value was “inhibits NET formation”. In the data set on granulocytes, the chemotaxis of granulocytes entry is “blocked the chemotaxis”.

These data come from patent US20230058634A1, “PREVENTION OF PLATELET ACTIVATION AND CELL DIFFERENTIATION DURING THE PROCESSING OF BLOOD AND BLOOD-RELATED COMPOSITIONS” (GPB Scientific, Inc., priority 2020, published 2023).
